Data published in patent US10201586B2 (dated 2019).
pEC50, pIC50: −log10 of the molar value. Where two headings read alike, the source gives them in different places. Where a SMILES comes first, the peptide text is derived from it. Bridges are numbered along the chain shown (N, C = ends). [ ]: non-standard residue; d: D form. NMeF = CN[C@@H](Cc1ccccc1)C(=O)O; β3hD = NC(CC(=O)O)CC(=O)O; Aib = CC(C)(N)C(=O)O; Sar = CNCC(=O)O

How the values were obtained:
TFPI [1] = molecular target: T1, TFPI (Homo sapiens, UniProt P10646); assay: Extrinsic Tenase Inhibition assay | % Inhibition @ 2.5µM; settings: read-out: Extrinsic Tenase Inhibition assay | % Inhibition @ […]
Target sequence in this assay (P10646 29-304 limits assumed): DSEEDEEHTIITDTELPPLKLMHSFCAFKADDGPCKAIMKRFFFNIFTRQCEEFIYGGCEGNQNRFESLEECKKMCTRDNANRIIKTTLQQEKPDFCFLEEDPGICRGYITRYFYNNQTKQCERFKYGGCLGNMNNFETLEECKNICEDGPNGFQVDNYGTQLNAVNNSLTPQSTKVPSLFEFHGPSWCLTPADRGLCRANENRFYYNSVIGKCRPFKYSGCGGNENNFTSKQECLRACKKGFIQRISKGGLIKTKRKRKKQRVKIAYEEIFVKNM

TFPI [2] = molecular target: T1, TFPI; assay: % Inhibition @ 2.5µM; settings: read-out: % Inhibition @ […]
Target sequence in this assay (P10646 29-304 limits assumed): as above

TFPI [3] = molecular target: T1, TFPI; assay: % Inhibition @ 2.5µM; settings: read-out: % Inhibition @ […]; remark: listed apart in the source
Target sequence in this assay (P10646 29-304 limits assumed): as above

TFPI [4] = molecular target: T1, TFPI; assay: Extrinsic Tenase Inhibition assay | EC50 (µM)
Target sequence in this assay (P10646 29-304 limits assumed): as above

TFPI [5] = molecular target: T1, TFPI; assay: IC50 Mean (nM]
Target sequence in this assay (P10646 29-304 limits assumed): as above

TFPI [6] = molecular target: T1, TFPI; assay: Extrinsic Tenase Inhibition assay | % Inhibition @ 2.5µM
TFPI [7] = molecular target: T1, TFPI; assay: % Inhibition @ 2.5µM
TFPI [8] = molecular target: T1, TFPI; assay: % Inhibition @ 2.5µM; remark: listed apart in the source
TFPI [9] = molecular target: T1, TFPI; assay: Extrinsic Tenase Inhibition assay | % Inhibition @ 2.5μM
TFPI [10] = molecular target: T1, TFPI; assay: IC50 Mean (nM]; remark: listed apart in the source
Target sequence in this assay (P10646 29-304 limits assumed): as above

TFPI [11] = molecular target: T1, TFPI; assay: Extrinsic Tenase Inhibition assay | EC50 (µM); remark: listed apart in the source
TFPI [12] = molecular target: T1, TFPI; assay: Extrinsic Tenase Inhibition assay | % Inhibition @ 2.5µM; settings: read-out: Extrinsic Tenase Inhibition assay | % Inhibition @ […]; remark: listed apart in the source
TFPI [13] = molecular target: T1, TFPI; assay: FXa Inhibition assay | EC50 (µM)
TFPI [14] = molecular target: T1, TFPI; assay: Extrinsic Tenase Inhibition assay | % Inhibition @ 2.5µM; remark: listed apart in the source
TFPI [15] = molecular target: T1, TFPI; assay: as above; remark: listed apart in the source
TFPI [16] = molecular target: T1, TFPI; assay: % Inhibition @ 2.5µM; remark: listed apart in the source
TFPI [17] = molecular target: T1, TFPI; assay: Extrinsic Tenase Inhibition assay | % Inhibition @ 2.5µM; remark: listed apart in the source

## CSCC[C@@H]1NC(=O)CNC(=O)[C@@H](NC(=O)[C@H](Cc2ccccc2)NC(=O)[C@H](Cc2c[nH]c3ccccc23)NC(=O)[C@H](CCCCN)NC(=O)[C@H](Cc2ccc(O)cc2)NC(=O)[C@H](CCCNC(=N)N)NC(=O)[C@H](CO)NC(=O)[C@H](CCCCN)NC(=O)[C@H](CCCCN)NC(C)=O)CSSC[C@@H](C(=O)N[C@H](C(=O)N[C@@H](Cc2c[nH]c3ccccc23)C(=O)N[C@@H](CCCCN)C(=O)N[C@@H](CCCCN)C(N)=O)C(C)C)NC(=O)[C@H](CO)NC(=O)[C@H](CCSC)NC(=O)[C@H]([C@@H](C)O)NC(=O)CNC(=O)[C@H](CCCCN)NC(=O)[C@H](CCSC)NC(=O)[C@H](CC(=O)O)NC(=O)[C@H](CCCNC(=N)N)NC1=O [JBT0250] (Ac-KKSRYKWFCGMRDMKGTMSCVWKK-NH2; disulfide 9-20)
TFPI [1]
  inhibition at […]: 19%
TFPI [2]
  inhibition at […]: 11%

## CC(=O)N[C@@H](Cc1ccccc1)C(=O)N[C@@H](CCC(N)=O)C(=O)N[C@@H](CO)C(=O)N[C@@H](CCCCN)C(=O)N(C)CC(=O)N[C@@H](CC(N)=O)C(=O)N[C@H](C(=O)N[C@@H](Cc1ccccc1)C(=O)N[C@H](C(=O)N[C@@H](Cc1ccccc1)C(=O)NCC(=O)N[C@@H](Cc1ccc(O)cc1)C(=O)N[C@@H](Cc1ccccc1)C(=O)N[C@@H](C)C(=O)N[C@@H](CCCNC(=N)N)C(=O)N[C@@H](CC(C)C)C(=O)N[C@@H](CCCNC(=N)N)C(=O)N[C@@H](C)C(=O)N[C@@H](CCCCN)C(=O)N[C@@H](CC(C)C)C(N)=O)C(C)C)C(C)C [JBT0780] (Ac-FQSK[Sar]NVFVFGYFARLRAKL-NH2)
TFPI [3]
  inhibition at […]: 45%
TFPI [4]
  pEC50: 5.72

## CC(=O)N[C@@H](Cc1ccccc1)C(=O)N[C@@H](CCC(N)=O)C(=O)N[C@@H](CO)C(=O)N[C@@H](CCCCN)C(=O)N[C@@H](Cc1ccccc1)C(=O)N[C@@H](CC(N)=O)C(=O)N[C@H](C(=O)N[C@@H](Cc1ccccc1)C(=O)N[C@H](C(=O)N[C@@H](Cc1ccccc1)C(=O)NCC(=O)N[C@@H](Cc1ccc(O)cc1)C(=O)N[C@@H](Cc1ccccc1)C(=O)N[C@@H](CCC(=O)O)C(=O)N[C@@H](CCCNC(=N)N)C(=O)N[C@@H](CC(C)C)C(=O)N[C@@H](CCCNC(=N)N)C(=O)N[C@@H](C)C(=O)N[C@@H](CCCCN)C(=O)N[C@@H](CC(C)C)C(N)=O)C(C)C)C(C)C [JBT0573 | 690] (Ac-FQSKFNVFVFGYFERLRAKL-NH2)
TFPI [5]
  pIC50: 5.86

## Ac-FQSKGNVFVFGYF-bE-RLRAKL-NH2 (SEQ ID NO: 272) (Ac-FQSKGNVFVFGYF[β3hD]RLRAKL-NH2; SMILES CC(=O)N[C@@H](Cc1ccccc1)C(=O)N[C@@H](CCC(N)=O)C(=O)N[C@@H](CO)C(=O)N[C@@H](CCCCN)C(=O)NCC(=O)N[C@@H](CC(N)=O)C(=O)N[C@H](C(=O)N[C@@H](Cc1ccccc1)C(=O)N[C@H](C(=O)N[C@@H](Cc1ccccc1)C(=O)NCC(=O)N[C@@H](Cc1ccc(O)cc1)C(=O)N[C@@H](Cc1ccccc1)C(=O)N[C@@H](CC(=O)O)CC(=O)N[C@@H](CCCNC(=N)N)C(=O)N[C@@H](CC(C)C)C(=O)N[C@@H](CCCNC(=N)N)C(=O)N[C@@H](C)C(=O)N[C@@H](CCCCN)C(=O)N[C@@H](CC(C)C)C(N)=O)C(C)C)C(C)C) [JBT0528]
TFPI [6]
  Extrinsic Tenase Inhibition assay | % Inhibition @ […]: 8%
TFPI [7]
  % Inhibition @ […]: 25%

## Ac-SRYKWFGMR[CDMKGC]TMSVWVKF-NH2 (SEQ ID NO: 1162) (Ac-SRYKWFGMRCDMKGCTMSVWVKF-NH2; disulfide 10-15; SMILES CSCC[C@H](NC(=O)CNC(=O)[C@H](Cc1ccccc1)NC(=O)[C@H](Cc1c[nH]c2ccccc12)NC(=O)[C@H](CCCCN)NC(=O)[C@H](Cc1ccc(O)cc1)NC(=O)[C@H](CCCNC(=N)N)NC(=O)[C@H](CO)NC(C)=O)C(=O)N[C@@H](CCCNC(=N)N)C(=O)N[C@H]1CSSC[C@@H](C(=O)N[C@H](C(=O)N[C@@H](CCSC)C(=O)N[C@@H](CO)C(=O)N[C@H](C(=O)N[C@@H](Cc2c[nH]c3ccccc23)C(=O)N[C@H](C(=O)N[C@@H](CCCCN)C(=O)N[C@@H](Cc2ccccc2)C(N)=O)C(C)C)C(C)C)[C@@H](C)O)NC(=O)CNC(=O)[C@H](CCCCN)NC(=O)[C@H](CCSC)NC(=O)[C@H](CC(=O)O)NC1=O) [JBT0470]
TFPI [8]
  % Inhibition @ […]: 0%
TFPI [9]
  Extrinsic Tenase Inhibition assay | % Inhibition @ […]: 2%

## CC(=O)N(C)[C@@H](Cc1ccccc1)C(=O)N[C@@H](CCC(N)=O)C(=O)N[C@@H](CO)C(=O)N[C@@H](CCCCN)C(=O)NCC(=O)N[C@@H](CC(N)=O)C(=O)N[C@H](C(=O)N[C@@H](Cc1ccccc1)C(=O)N[C@H](C(=O)N[C@@H](Cc1ccccc1)C(=O)NCC(=O)N[C@@H](Cc1ccc(O)cc1)C(=O)N[C@@H](Cc1ccccc1)C(=O)N[C@@H](CCC(=O)O)C(=O)N[C@@H](CCCNC(=N)N)C(=O)N[C@@H](CC(C)C)C(=O)N[C@@H](CCCNC(=N)N)C(=O)N[C@@H](C)C(=O)N[C@@H](CCCCN)C(=O)N[C@@H](CC(C)C)C(N)=O)C(C)C)C(C)C [JBT0497 | 201] (Ac-[NMeF]QSKGNVFVFGYFERLRAKL-NH2)
TFPI [10]
  pIC50: 7.00

## CC(=O)N(C)[C@@H](Cc1ccccc1)C(=O)N[C@@H](CCC(N)=O)C(=O)N[C@@H](CO)C(=O)N[C@@H](CCCCN)C(=O)NCC(=O)N[C@@H](CC(N)=O)C(=O)N[C@H](C(=O)N[C@@H](Cc1ccccc1)C(=O)N[C@H](C(=O)N[C@@H](Cc1ccccc1)C(=O)NCC(=O)N[C@@H](Cc1ccc(O)cc1)C(=O)N[C@@H](Cc1ccccc1)C(=O)N[C@@H](CCC(=O)O)C(=O)N[C@@H](CCCNC(=N)N)C(=O)N[C@@H](CC(C)C)C(=O)N[C@@H](CCCNC(=N)N)C(=O)N[C@@H](C)C(=O)N[C@@H](CCCCN)C(=O)N[C@@H](CC(C)C)C(N)=O)C(C)C)C(C)C [JBT0497] (Ac-[NMeF]QSKGNVFVFGYFERLRAKL-NH2)
TFPI [11]
  pEC50: 5.95

## CC(=O)N[C@@H](Cc1ccccc1)C(=O)N[C@@H](CCC(N)=O)C(=O)N[C@@H](CO)C(=O)N[C@@H](CCCCN)C(=O)N(C)CC(=O)N[C@@H](CC(N)=O)C(=O)N[C@H](C(=O)N[C@@H](Cc1ccccc1)C(=O)N[C@H](C(=O)N[C@H](C(=O)NCC(=O)N[C@@H](Cc1ccc(O)cc1)C(=O)N[C@@H](Cc1ccccc1)C(=O)N[C@@H](CCC(=O)O)C(=O)N[C@@H](CCCNC(=N)N)C(=O)N[C@@H](CC(C)C)C(=O)N[C@@H](CCCNC(=N)N)C(=O)N[C@@H](C)C(=O)N[C@@H](CCCCN)C(=O)N[C@@H](CC(C)C)C(N)=O)[C@@H](C)O)C(C)C)C(C)C [JBT1155] (Ac-FQSK[Sar]NVFVTGYFERLRAKL-NH2)
TFPI [12]
  inhibition at […]: 32%
TFPI [13]
  pEC50: 6.68

## Ac-FQSK-Nmg-NVFVTGYFERL-Aib-AKL-NH2 (SEQ ID NO: 165) (Ac-FQSK[Sar]NVFVTGYFERL[Aib]AKL-NH2; SMILES CC(=O)N[C@@H](Cc1ccccc1)C(=O)N[C@@H](CCC(N)=O)C(=O)N[C@@H](CO)C(=O)N[C@@H](CCCCN)C(=O)N(C)CC(=O)N[C@@H](CC(N)=O)C(=O)N[C@H](C(=O)N[C@@H](Cc1ccccc1)C(=O)N[C@H](C(=O)N[C@H](C(=O)NCC(=O)N[C@@H](Cc1ccc(O)cc1)C(=O)N[C@@H](Cc1ccccc1)C(=O)N[C@@H](CCC(=O)O)C(=O)N[C@@H](CCCNC(=N)N)C(=O)N[C@@H](CC(C)C)C(=O)NC(C)(C)C(=O)N[C@@H](C)C(=O)N[C@@H](CCCCN)C(=O)N[C@@H](CC(C)C)C(N)=O)[C@@H](C)O)C(C)C)C(C)C) [JBT1585]
TFPI [14]
  Extrinsic Tenase Inhibition assay | % Inhibition @ […]: 48%

## Ac-FQSKGNVFVFGYFERLR-bAla-KL-NH2 (SEQ ID NO: 423) [JBT0532]
TFPI [15]
  Extrinsic Tenase Inhibition assay | % Inhibition @ […]: 0%
TFPI [7]
  % Inhibition @ […]: 14%

## Ac-SRYKWF[CGMADMKGTMSC]VWVKF-NH2 (SEQ ID NO: 1079) (Ac-SRYKWFCGMADMKGTMSCVWVKF-NH2; disulfide 7-18; SMILES CSCC[C@@H]1NC(=O)CNC(=O)[C@@H](NC(=O)[C@H](Cc2ccccc2)NC(=O)[C@H](Cc2c[nH]c3ccccc23)NC(=O)[C@H](CCCCN)NC(=O)[C@H](Cc2ccc(O)cc2)NC(=O)[C@H](CCCNC(=N)N)NC(=O)[C@H](CO)NC(C)=O)CSSC[C@@H](C(=O)N[C@H](C(=O)N[C@@H](Cc2c[nH]c3ccccc23)C(=O)N[C@H](C(=O)N[C@@H](CCCCN)C(=O)N[C@@H](Cc2ccccc2)C(N)=O)C(C)C)C(C)C)NC(=O)[C@H](CO)NC(=O)[C@H](CCSC)NC(=O)[C@H]([C@@H](C)O)NC(=O)CNC(=O)[C@H](CCCCN)NC(=O)[C@H](CCSC)NC(=O)[C@H](CC(=O)O)NC(=O)[C@H](C)NC1=O) [JBT0446]
TFPI [16]
  % Inhibition @ […]: 50%
TFPI [17]
  Extrinsic Tenase Inhibition assay | % Inhibition @ […]: 46%
